Experiments:
Assay type in all cases: cell-based
[1] = molecular target: T1, TRPV1 (Rattus norvegicus, UniProt O35433); assay: Bulk calcium assay (Fluo-4) in HEK-TRPV1 overexpressing cells; details: bulk calcium assay; TRPV1; mean (SD)
T1 construct: FLAG; expressed in transfected cells
Experimental: (§1) Cells were washed and incubated with 0.2 micromolar Fluo-4 for 30 minutes at 37° C. in a standard modified Ringer's solution of the following composition (in mM): NaCl 145, KCl 2.8, CsCl 10, CaCl2 10, MgCl2 2, glucose 10, Hepes·NaOH 10, pH 7.4, 330 mOsm. Cells were transferred to 96-well plates at 50,000 cells/well and stimulated as indicated. Calcium signals were acquired using a Flexstation 3 (Molecular Devices, Sunnydale, USA). Data was analyzed using SoftMax® Pro 5 (Molecular Devices). Where indicated, nomically calcium-free external conditions were achieved by the preparation of 0 mM CaCl2 Ringer solution containing 1 mM EGTA.
The cell culture system described in U.S. patent application Ser. No. 15/986,316 was used to test the TRPV1-mediated calcium response to various terpenes. The HEK293 cell line was stably transfected with the pcDNA6TR (Invitrogen, CA) plasmid (encoding the tetracycline-sensitive TREx repressor protein), and was maintained in DMEM+10% fetal bovine serum (inactivated at 55° C. for 1 h)+2 mM glutamine in humidified 5% CO2 atmosphere at 37° C. Selection pressure on the TRex 293 cells was maintained by continuous culture in 10 μg/ml Blasticidin (Sigma, St Louis, Mo.).
For production of TRex HEK293 cells with inducible expression of TRPV1, parental cells were electroporated with the rat TRPV1 cDNA in the pcDNA4TO vector and clonal cell lines were selected by limiting dilution in the presence of 400 μg/ml zeocin (Invitrogen, CA). TRPV1 expression was induced using 1 μg/ml tetracycline for 16 h at 37° C. Stable lines were screened for inducible protein expression using anti-FLAG Western blot, and inducible expression was confirmed.
Calcium responses mediated by TRPV1 were tested by calcium assay in the cell culture system. Cells were washed and incubated with 0.2 μM fluo-4 acetoxymethyl ester (“Fluo-4”) for 30 minutes at 37° C. in a standard modified Ringer's solution of the following composition (in mM): NaCl 145, KCl2.8, CsCl10, CaCl2 10, MgCl2 2, glucose 10, Hepes·NaOH 10, pH 7.4, 330 mOsm. Cells were transferred to 96-well plates at 50,000 cells/well and stimulated as indicated. The terpenes used were alpha-bisabool, alpha-pinene, myrcene, camphene, linalool, ocimene, humulene, beta-caryophyllene, beta-pinene, limonene, and nerolidol. The terpenes were diluted in DMSO and added to the wells to a final concentration of 10 μM. Vehicle (DMSO) alone was run as a negative control and subtracted from the terpene traces. Calcium signals were acquired using a Flexstation 3 (Molecular Devices, Sunnydale, USA). Data was analyzed using SoftMax® Pro 5 (Molecular Devices).
(§2) Calcium responses mediated by TRPA1, TRPM8, TRPV2, and TRPV1 were tested by calcium assay in the cell culture system. Cells were washed and incubated with 0.2 μM fluo-4 acetoxymethyl ester (“Fluo-4”) for 30 minutes at 37° C. in a standard modified Ringer's solution of the following composition (in mM): NaCl 145, KCl 2.8, CsCl 10, CaCl2 10, MgCl2 2, glucose 10, Hepes·NaOH 10, pH 7.4, 330 mOsm. Cells were transferred to 96-well plates at 50,000 cells/well and stimulated with 10 μM myrcene diluted in DMSO. Vehicle (DMSO) was used as a negative control. Vehicle traces were subtracted from the myrcene traces for each cell line.
As shown in FIGS. 16A-H, a variety of cannabinoids were capable of initiating Ca^2+ fluxes in HEK-TRPV1 overexpressing cells, except for cannabigerol and cannabinol. Comparative responses to a single dose (10 μM concentration) of a variety of cannabinoids were made in the presence of 1 mM external Ca^2+, which are population-based, or bulk Ca^2+, measurements with each trace representing averaged triplicates of 100,000 cells per sample. […] For each of the cannabinoid compounds, dose responses at the population level were performed. […] The lower limit of detectable calcium responses in this system varied from 10-100 nM (CBDV, CBGA) to 1-10 μM.

[2] = molecular target: T2, TRPV2 (Homo sapiens, UniProt Q9Y5S1); assay: Bulk calcium assay (Fluo-4) in HEK cells overexpressing TRPV2
T2 construct: host or cells: HEK TRex293
T2 sequence (Q9Y5S1 1-764): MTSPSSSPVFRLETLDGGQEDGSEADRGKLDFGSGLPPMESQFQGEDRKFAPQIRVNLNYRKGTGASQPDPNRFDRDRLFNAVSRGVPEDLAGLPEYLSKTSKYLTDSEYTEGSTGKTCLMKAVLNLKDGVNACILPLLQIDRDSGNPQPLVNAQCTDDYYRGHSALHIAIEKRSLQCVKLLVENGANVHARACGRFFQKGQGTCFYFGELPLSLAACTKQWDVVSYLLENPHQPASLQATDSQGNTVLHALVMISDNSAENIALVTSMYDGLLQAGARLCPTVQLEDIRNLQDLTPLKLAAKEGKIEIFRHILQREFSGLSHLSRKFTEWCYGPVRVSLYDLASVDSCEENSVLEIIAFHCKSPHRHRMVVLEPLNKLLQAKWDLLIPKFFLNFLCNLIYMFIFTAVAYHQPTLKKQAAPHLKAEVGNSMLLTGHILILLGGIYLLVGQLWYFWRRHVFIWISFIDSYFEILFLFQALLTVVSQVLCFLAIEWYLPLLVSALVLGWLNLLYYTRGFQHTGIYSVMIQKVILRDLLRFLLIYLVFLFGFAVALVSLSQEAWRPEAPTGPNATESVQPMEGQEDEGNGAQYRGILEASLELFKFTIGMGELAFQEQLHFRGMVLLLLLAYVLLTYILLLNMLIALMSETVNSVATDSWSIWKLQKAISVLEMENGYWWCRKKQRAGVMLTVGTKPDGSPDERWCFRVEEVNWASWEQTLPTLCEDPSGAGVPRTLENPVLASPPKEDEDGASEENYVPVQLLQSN
Experimental: (§3) HEK TRexTRPV1 were cultured in DMEM, 10% Fetal Bovine Serum, 2 mM Lglutamine, 10 μg/ml Blasticidin (Calbiochem, San Diego Calif.), 400 μg/ml Zeocin (InvivoGen, San Diego Calif.), where indicated transgene expression was induced using 1 μg/ml Tetracycline for 16-24 hrs. Unless otherwise indicated, basal expression of TRPV1 without induction was sufficient for these studies, and comparisons were made to untransfected HEK where needed. HEKTRex293 over-expressing human TRPV2, human TRPA1 and human TRPM8 were obtained from SB Drug Discovery (Glasgow, Scotland) and cultured as described above. The cannabinoids and terpenes were assayed in HEK cells that have been transfected with the TRPV1 ion channel protein. These cells are called HEK293-V1 cells.
as §1, §2
(§4) The potential for different cannabinoids to target specific TRP channels, or to co-target more than one channel type, are of potential therapeutic options for the treatment and management of pain. Comparison of the impacts of a variety of cannabinoid on overexpression systems for TRPV2, TRPM8, and TRPA1 were performed in a side-by-side fashion, under bulk calcium assays where the measurements with each trace representing averaged triplicates of 100,000 cells per sample. As shown in FIGS. 41-43 and summarized in Table 3, there are clear differences in responsiveness between cannabinoids at a single channel type than between channel types to a given cannabinoid.

[3] = molecular target: T3, TRPM8 (Homo sapiens, UniProt Q7Z2W7); assay: Bulk calcium assay (Fluo-4) in HEK cells overexpressing TRPM8
T3 construct: host or cells: HEK TRex293
T3 sequence (Q7Z2W7 whole entry): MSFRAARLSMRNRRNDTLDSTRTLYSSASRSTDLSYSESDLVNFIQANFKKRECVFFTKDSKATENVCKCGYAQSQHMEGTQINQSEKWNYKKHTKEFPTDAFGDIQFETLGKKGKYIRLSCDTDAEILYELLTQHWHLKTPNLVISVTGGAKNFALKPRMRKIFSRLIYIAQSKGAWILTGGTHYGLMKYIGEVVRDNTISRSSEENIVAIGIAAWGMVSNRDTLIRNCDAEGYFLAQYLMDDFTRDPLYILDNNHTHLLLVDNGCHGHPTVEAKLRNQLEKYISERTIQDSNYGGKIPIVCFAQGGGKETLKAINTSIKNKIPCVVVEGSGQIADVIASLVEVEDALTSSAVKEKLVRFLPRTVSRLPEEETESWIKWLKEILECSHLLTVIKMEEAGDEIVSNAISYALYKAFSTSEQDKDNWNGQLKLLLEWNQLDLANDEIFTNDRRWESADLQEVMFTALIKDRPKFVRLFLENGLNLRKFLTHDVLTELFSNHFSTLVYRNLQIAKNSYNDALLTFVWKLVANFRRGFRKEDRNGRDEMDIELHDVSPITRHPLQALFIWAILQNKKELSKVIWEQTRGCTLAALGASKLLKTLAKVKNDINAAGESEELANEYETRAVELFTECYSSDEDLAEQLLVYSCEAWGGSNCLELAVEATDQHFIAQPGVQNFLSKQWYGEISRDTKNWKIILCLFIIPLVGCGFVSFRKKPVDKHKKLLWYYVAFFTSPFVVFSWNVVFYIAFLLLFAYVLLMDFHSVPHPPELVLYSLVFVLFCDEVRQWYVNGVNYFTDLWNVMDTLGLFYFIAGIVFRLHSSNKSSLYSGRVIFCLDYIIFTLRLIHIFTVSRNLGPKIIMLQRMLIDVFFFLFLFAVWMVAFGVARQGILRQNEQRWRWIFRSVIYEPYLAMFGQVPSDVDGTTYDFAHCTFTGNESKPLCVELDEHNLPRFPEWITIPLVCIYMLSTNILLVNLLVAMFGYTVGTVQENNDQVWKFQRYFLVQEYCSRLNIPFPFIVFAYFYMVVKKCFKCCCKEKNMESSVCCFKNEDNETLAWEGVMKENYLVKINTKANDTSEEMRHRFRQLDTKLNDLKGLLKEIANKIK
Experimental: as §3, §1, §2, §4

[4] = molecular target: T4, TRPA1 (Homo sapiens, UniProt O75762); assay: Bulk calcium assay (Fluo-4) in HEK cells overexpressing TRPA1
T4 construct: host or cells: HEK TRex293
T4 sequence (O75762 whole entry): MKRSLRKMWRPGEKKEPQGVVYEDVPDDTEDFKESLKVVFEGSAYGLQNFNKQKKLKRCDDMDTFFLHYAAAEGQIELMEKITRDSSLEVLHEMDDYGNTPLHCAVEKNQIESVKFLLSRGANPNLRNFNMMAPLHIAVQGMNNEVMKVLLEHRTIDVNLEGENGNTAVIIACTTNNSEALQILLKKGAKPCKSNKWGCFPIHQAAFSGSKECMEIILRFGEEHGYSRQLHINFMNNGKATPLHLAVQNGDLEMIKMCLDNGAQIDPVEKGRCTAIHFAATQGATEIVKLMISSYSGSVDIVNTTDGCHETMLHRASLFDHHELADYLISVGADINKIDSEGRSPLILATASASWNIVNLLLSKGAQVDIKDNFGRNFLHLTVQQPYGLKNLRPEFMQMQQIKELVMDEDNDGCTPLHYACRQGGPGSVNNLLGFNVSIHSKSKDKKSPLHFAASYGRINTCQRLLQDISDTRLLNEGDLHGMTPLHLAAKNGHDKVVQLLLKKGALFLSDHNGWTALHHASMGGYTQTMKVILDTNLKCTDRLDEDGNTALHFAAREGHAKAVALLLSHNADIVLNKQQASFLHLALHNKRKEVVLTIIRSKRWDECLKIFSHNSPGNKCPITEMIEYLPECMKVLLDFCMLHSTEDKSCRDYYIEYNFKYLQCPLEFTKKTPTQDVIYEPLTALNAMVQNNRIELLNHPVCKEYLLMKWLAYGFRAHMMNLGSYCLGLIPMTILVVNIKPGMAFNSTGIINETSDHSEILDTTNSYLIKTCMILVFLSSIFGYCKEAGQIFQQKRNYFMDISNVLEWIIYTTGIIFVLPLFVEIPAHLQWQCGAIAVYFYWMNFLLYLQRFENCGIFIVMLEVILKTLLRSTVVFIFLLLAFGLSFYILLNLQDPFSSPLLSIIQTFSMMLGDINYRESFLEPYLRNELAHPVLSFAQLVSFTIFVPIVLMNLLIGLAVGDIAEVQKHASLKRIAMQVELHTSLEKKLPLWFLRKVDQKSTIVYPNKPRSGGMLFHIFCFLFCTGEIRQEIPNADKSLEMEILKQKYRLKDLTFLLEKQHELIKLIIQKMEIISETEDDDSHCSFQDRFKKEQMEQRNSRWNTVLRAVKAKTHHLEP
Experimental: as §3, §1, §2, §4

[5] = tested on: WT HEK293; assay: Bulk calcium assay in untransfected WT HEK293; details: 10 μM, 1 mM external Ca2+

T1 sequence (O35433 whole entry): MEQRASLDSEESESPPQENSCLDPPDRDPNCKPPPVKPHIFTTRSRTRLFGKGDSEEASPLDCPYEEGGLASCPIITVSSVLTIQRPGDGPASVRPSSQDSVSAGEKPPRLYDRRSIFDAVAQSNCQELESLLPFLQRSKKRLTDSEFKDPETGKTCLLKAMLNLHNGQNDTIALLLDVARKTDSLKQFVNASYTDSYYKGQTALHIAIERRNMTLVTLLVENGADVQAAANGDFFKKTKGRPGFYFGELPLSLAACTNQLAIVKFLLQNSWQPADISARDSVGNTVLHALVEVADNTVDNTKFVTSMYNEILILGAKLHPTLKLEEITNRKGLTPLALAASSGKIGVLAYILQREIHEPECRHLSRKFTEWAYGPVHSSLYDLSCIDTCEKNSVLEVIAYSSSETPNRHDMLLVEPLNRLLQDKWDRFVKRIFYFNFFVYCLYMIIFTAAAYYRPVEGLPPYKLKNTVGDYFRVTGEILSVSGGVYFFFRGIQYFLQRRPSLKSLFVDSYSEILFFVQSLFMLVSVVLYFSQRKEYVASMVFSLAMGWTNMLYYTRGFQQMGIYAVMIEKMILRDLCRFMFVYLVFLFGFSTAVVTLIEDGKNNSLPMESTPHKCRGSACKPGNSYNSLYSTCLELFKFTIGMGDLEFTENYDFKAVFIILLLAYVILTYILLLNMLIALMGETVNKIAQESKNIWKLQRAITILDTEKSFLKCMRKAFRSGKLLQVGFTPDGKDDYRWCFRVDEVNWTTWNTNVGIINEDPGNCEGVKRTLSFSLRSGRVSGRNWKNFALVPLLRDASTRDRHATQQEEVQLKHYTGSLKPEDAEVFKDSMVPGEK

Row | Compound | mean maximal Ca^2+ signal RFU achieved 0-180 s (SD), TRPV1 [1] | mean maximal Ca^2+ signal RFU achieved 0-180 s (SD), TRPV1 [2] | mean maximal Ca^2+ signal RFU achieved 0-180 s (SD), TRM8 [3] | mean maximal Ca^2+ signal RFU achieved 0-180 s (SD), TRPA1 [4] | calcium response of WT HEK293 [5]
1 | C=C(C)[C@@H]1CCC(C)=C[C@H]1c1c(O)cc(CCCCC)c(C(=O)O)c1O [CBDA, Cannabidiolic Acid] | 4.62 (0.66) RFU | 3.69 (1.2) RFU | 1.92 (0.04) RFU | 10.09 (3.08) RFU | 
2 | CCCCCc1cc(O)c2c(c1)OC(C)(CCC=C(C)C)C=C2 (stereo not shown) [CBC, Cannabichromene] | 3.23 (0.12) RFU | 21.66 (1.89) RFU | 0.97 (0.03) RFU | 15.13 (3.35) RFU | 
3 | CCCCCc1cc(O)c(C/C=C(\C)CCC=C(C)C)c(O)c1C(=O)O [CBGA, Cannabigerolic Acid] | 13.77 (0.31) RFU | 0.78 (0.02) RFU | 0.3 (0.01) RFU | 3.65 (1.11) RFU | responding slightly

— patent publication US20220387375A1, “TRPV1 ACTIVATION-MODULATING COMPLEX MIXTURES OF CANNABINOIDS AND/OR TERPENES” (GBS Global Biopharma, Inc., priority 2018, published 2022)
